Assay results published in PMC10773943, “Molecular cloning and functional analysis of 4-coumarate: CoA ligases from Marchantia paleacea and their roles in lignin and flavanone biosynthesis” (PLOS ONE, 2024).
Blank lines part the entries; values can stand above or below the compound they belong to.

Tests used:
Format in all cases: biochemical, Marchantia paleacea
Conditions in all cases: ATP, MgCl2, 200 mM Tris-HCl (assay: 5 mM ATP, 300 μM CoA, 5 mM MgCl2, pH 7.5, 30°C)
Mp4CL1 [1] = tested on: T1, Mp4CL1; assay: UV absorbance of CoA ester formation at […] nm
T1 construct: expressed in E. coli BL21(DE3), purified; from transcriptome SRP078650

Mp4CL1 [2] = tested on: T1, Mp4CL1; assay: UV absorbance of CoA ester formation at […] nm; remark: listed apart in the source
Mp4CL1 [3] = tested on: T1, Mp4CL1; assay: HPLC quantification of CoA ester with calibration curve
Source text: HPLC quantification of CoA ester with calibration curve on Mp4CL1

Mp4CL1 [4] = tested on: T1, Mp4CL1; assay: UV absorbance of CoA ester formation at […] nm; remark: listed apart in the source

SMILES: O=C(O)/C=C/c1ccc(O)c(O)c1 [caffeic acid]
Km (Mp4CL1 [1]): 113 ± 24.3 µM

SMILES: O=C(O)/C=C/c1ccccc1 [cinnamic acid]
Km (Mp4CL1 [2]): 115 ± 16.6 µM

SMILES: COc1cc(/C=C/C(=O)O)ccc1O [ferulic acid]
Km (Mp4CL1 [1]): 414 ± 95.7 µM

Next, values leading:

Km (Mp4CL1 [3]): 289 ± 36.5 µM
SMILES: O=C(O)CCc1ccc(O)cc1 [dihydro-p-coumaric acid]

Km (Mp4CL1 [4]): 94 ± 30.9 µM
SMILES: O=C(O)/C=C/c1ccc(O)cc1 [p-coumaric acid]
